According to US8906925B2, “Pyrido[4,3-B]indoles containing rigid moieties” (Medivation Technologies, Inc., priority 2008, dated 2014):
“And” between values parts separate entries of the source, which are not always exact repeats. Equal values may be shown once.

Columns and labels:
histamine receptor H1 = histamine receptor H1 (Homo sapiens, UniProt P35367); experiment: Histamine H1 radioligand binding ([3H]Pyrilamine); conditions: for inhibition at 1 µM: read-out: Histamine Binding (1 μM) H1, percent inhibition of specific binding, 1 μM
Chain of histamine receptor H1 (P35367 whole entry): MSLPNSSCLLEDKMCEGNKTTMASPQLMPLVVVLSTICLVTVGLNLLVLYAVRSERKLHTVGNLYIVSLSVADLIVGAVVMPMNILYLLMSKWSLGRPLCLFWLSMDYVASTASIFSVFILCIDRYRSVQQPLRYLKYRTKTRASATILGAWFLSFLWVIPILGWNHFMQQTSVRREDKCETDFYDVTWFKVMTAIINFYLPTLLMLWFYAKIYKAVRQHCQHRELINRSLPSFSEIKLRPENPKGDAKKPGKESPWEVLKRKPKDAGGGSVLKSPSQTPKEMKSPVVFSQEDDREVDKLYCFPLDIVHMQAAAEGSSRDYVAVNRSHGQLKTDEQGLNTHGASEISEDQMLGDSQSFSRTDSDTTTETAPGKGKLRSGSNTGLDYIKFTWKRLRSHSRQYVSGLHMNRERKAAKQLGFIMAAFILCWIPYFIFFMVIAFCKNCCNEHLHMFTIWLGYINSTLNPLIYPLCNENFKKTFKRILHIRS
Procedure, shortened: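 Values are percent inhibition of specific [3H]pyrilamine (1.2 nM) binding with compounds at ≤1 μM (1% DMSO vehicle); 180 min incubation at 25 °C, pH 7.4 Tris buffer, on CHO-expressed human H1 receptor; 1 μM pyrilamine defined nonspecific binding, bound ligand counted after filtration.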

[1] = biological target: T1, human recombinant adrenergic α2A receptor (Homo sapiens, UniProt P08913); experiment: Adrenergic α2A radioligand binding ([3H]MK-912); conditions: percent inhibition of specific binding; compound at 1 μM; read-out: Inhibition of ligand binding, Adrenergic α2A
T1 construct: expressed in transfected cells; host or cells: insect Sf9 cells
T1 sequence (P08913 1-465): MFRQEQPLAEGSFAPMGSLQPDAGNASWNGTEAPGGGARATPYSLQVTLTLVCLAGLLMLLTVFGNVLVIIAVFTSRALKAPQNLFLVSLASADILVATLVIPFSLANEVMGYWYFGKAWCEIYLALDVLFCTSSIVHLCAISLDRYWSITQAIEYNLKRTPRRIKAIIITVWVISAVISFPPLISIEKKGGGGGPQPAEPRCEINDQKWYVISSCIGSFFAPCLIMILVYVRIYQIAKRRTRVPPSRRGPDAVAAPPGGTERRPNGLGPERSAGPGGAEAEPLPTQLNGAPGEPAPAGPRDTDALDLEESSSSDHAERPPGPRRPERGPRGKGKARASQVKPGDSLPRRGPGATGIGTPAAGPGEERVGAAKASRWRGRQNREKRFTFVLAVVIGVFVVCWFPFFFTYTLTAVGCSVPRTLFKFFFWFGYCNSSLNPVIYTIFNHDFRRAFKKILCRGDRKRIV
Procedure: To evaluate in radioligand binding assays the activity of compounds of the invention, human recombinant adrenergic α2A receptor expressed in insect Sf9 cells (Uhlen S et al. J Pharmacol Exp Ther. 271:1558, 1994) in a modified Tris-HCl buffer (50 mM Tris-HCl, pH 7.4, 12.5 mM MgCl2, 2 mM EDTA) was used. Compounds of invention were incubated with 1 nM [^3H]MK-912 for 60 min. at 25° C. MK912 is (2S-trans)-1,3,4,5′,6,6′,7,12b-octahydro-1′,3′-dimethyl-spiro[2H-benzofuro[2,3-a]quinolizine-2,4′(1′H)-pyrimidin]-2′(3′H)-one hydrochloride Non-specific binding was estimated in the presence of 10 μM WB-4101 (2-(2,6-Dimethoxyphenoxyethyl)aminomethyl-1,4-benzodioxane hydrochloride). Receptor proteins were filtered and washed, the filters were then counted to determine [^3H]MK-912 specifically bound. Compounds were screened at 1 μM or lower, using 1% DMSO as vehicle. Biochemical assay results are presented as the percent inhibition of specific binding in Table 9.

[2] = biological target: T2, human recombinant serotonin (5-Hydroxytryptamine) 5-HT2C receptor (Homo sapiens, UniProt P28335); experiment: Serotonin 5-HT2C radioligand binding ([3H]Mesulergine); conditions: read-out: Inhibition of ligand binding, Serotonin 5-HT2C (percent inhibition of specific binding); for inhibition at 0.1 µM: compound at 0.1 μM; for inhibition at 1 µM: compound at 1 μM
T2 construct: expressed in transfected cells; host or cells: Chinese hamster ovary (CHO-K1) cells
T2 sequence (P28335 33-458): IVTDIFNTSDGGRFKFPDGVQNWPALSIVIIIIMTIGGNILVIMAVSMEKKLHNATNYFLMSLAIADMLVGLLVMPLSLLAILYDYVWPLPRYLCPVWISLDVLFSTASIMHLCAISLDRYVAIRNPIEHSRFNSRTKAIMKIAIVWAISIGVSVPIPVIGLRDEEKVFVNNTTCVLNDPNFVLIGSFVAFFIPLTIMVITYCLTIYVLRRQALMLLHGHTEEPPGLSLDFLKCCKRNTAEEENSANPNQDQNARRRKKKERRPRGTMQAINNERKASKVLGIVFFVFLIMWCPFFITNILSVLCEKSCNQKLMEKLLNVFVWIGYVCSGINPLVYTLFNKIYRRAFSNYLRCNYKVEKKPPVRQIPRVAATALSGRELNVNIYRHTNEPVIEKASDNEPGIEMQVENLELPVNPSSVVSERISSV
Procedure, shortened: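 Compounds tested at 1 μM or lower (1% DMSO vehicle) for displacement of 1 nM [3H]Mesulergine over 60 min at 25° C. Specific binding determined by filtration counting, with 1 μM Mianserin defining non-specific binding; values are percent inhibition.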

Compound	Histamine Binding (1 μM) H1, percent inhibition of specific binding (histamine receptor H1)	inhibition at 1 µM [1] [%]	inhibition at 0.1 µM [2] [%]	inhibition at 1 µM [2] [%]	inhibition at 1 µM (histamine receptor H1) [%]
CN1CCc2c(c3cc(Cl)ccc3n2CC(O)(c2ccc(F)cc2)C2CC2)C1 (centres unmarked) [Compound 82, 2-(8-chloro-1,2,3,4-tetrahydro-2-methylpyrido[4,3-b]indol-5-yl)-1-cyclopropyl-1-(4-fluorophenyl)ethanol]	35% and 64%	96	94	105	
C/C(=C\n1c2c(c3cc(Cl)ccc31)CN(C)CC2)c1ccc(F)cc1 [Compound 83, (E)-8-chloro-5-(2-(4-fluorophenyl)prop-1-enyl)-2,3,4,5-tetrahydro-2-methyl-1H-pyrido[4,3-b]indole]	60% and 79% and 84%	98	100	98	
C/C(=C\n1c2c(c3cc(C)ccc31)CN(C)CC2)c1ccc(F)cc1 [Compound 87, (E)-5-(2-(4-fluorophenyl)prop-1-enyl)-2,3,4,5-tetrahydro-2,8-dimethyl-1H-pyrido[4,3-b]indole]	81%	95	101	100	65
C/C(=C\n1c2c(c3cc(Cl)ccc31)CN(C)CC2)c1ccc(C)nc1 [Compound 89, (E)-8-chloro-2,3,4,5-tetrahydro-2-methyl-5-(2-(6-methylpyridin-3-yl)prop-1-enyl)-1H-pyrido[4,3-b]indole]		97		98	43
C/C(=C\n1c2c(c3cc(Cl)ccc31)CN(C)CC2)c1ccncc1 [Compound 90, (E)-8-chloro-2,3,4,5-tetrahydro-2-methyl-5-(2-(pyridin-4-yl)prop-1-enyl)-1H-pyrido[4,3-b]indole]	59%	95	85	97	48
COc1ccc(/C(C)=C/n2c3c(c4cc(Cl)ccc42)CN(C)CC3)cc1 [Compound 92, (E)-8-chloro-2,3,4,5-tetrahydro-5-(2-(4-methoxyphenyl)prop-1-enyl)-2-methyl-1H-pyrido[4,3-b]indole]		89		91	44
COc1ccc(/C(C)=C/n2c3c(c4cc(Cl)ccc42)CN(C)CC3)cc1F [Compound 93, (E)-8-chloro-5-(2-(3-fluoro-4-methoxyphenyl)prop-1-enyl)-2,3,4,5-tetrahydro-2-methyl-1H-pyrido[4,3-b]indole]		94		99	39
C/C(=C\n1c2c(c3cc(Cl)ccc31)CN(C)CC2)c1ccc(Cl)cc1 [Compound 100, (E)-8-chloro-5-(2-(4-chlorophenyl)prop-1-enyl)-2,3,4,5-tetrahydro-2-methyl-1H-pyrido[4,3-b]indole]	67%	101	104	97	65
CN1CCc2c(c3cc(Cl)ccc3n2/C=C(/c2ccc(F)cc2)C2CC2)C1 [Compound 110, (E)-8-chloro-5-(2-cyclopropyl-2-(4-fluorophenyl)vinyl)-2,3,4,5-tetrahydro-2-methyl-1H-pyrido[4,3-b]indole]	83%	99	99	101	77
Cc1ccc(/C=C/Cn2c3c(c4cc(Cl)ccc42)CN(C)CC3)cn1 [Compound 125, 8-chloro-2,3,4,5-tetrahydro-2-methyl-5-((E)-3-(6-methylpyridin-3-yl)allyl)-1H-pyrido[4,3-b]indole]		76		77	96
CN1CCc2c(c3cc(Cl)ccc3n2C/C=C/c2ccc(F)cc2)C1 [Compound 126, 5-(4-fluorocinnamyl)-8-chloro-2,3,4,5-tetrahydro-2-methyl-1H-pyrido[4,3-b]indole]		87		84	103
CN1CCc2c(c3cc(Cl)ccc3n2C/C=C/c2ccncc2)C1 [Compound 127, 8-chloro-2,3,4,5-tetrahydro-2-methyl-5-((E)-3-(pyridin-4-yl)allyl)-1H-pyrido[4,3-b]indole]		60		72	100
C=C(Cn1c2c(c3cc(Cl)ccc31)CN(C)CC2)c1ccc(F)cc1 [Compound 128, 8-chloro-5-(2-(4-fluorophenyl)allyl)-2,3,4,5-tetrahydro-2-methyl-1H-pyrido[4,3-b]indole]		99		100	98
C=C(Cn1c2c(c3cc(C)ccc31)CN(C)CC2)c1ccc(F)cc1 [Compound 132, 5-(2-(4-fluorophenyl)allyl)-2,3,4,5-tetrahydro-2,8-dimethyl-1H-pyrido[4,3-b]indole]		97		96	96
C=C(Cn1c2c(c3cc(Cl)ccc31)CN(C)CC2)c1cccnc1 [Compound 133, 8-chloro-2,3,4,5-tetrahydro-2-methyl-5-(2-(pyridin-3-yl)allyl)-1H-pyrido[4,3-b]indole]		89		96	101
C=C(Cn1c2c(c3cc(Cl)ccc31)CN(C)CC2)c1ccc(C)nc1 [Compound 136, 8-chloro-2,3,4,5-tetrahydro-2-methyl-5-(2-(6-methylpyridin-3-yl)allyl)-1H-pyrido[4,3-b]indole]		95		93	99
C=C(Cn1c2c(c3cc(Cl)ccc31)CN(C)CC2)c1ccc(OC)c(F)c1 [Compound 140, 8-chloro-5-(2-(3-fluoro-4-methoxyphenyl)allyl)-2,3,4,5-tetrahydro-2-methyl-1H-pyrido[4,3-b]indole]		86		98	98
Cc1ccc2c(c1)c1c(n2CC(O)(c2ccc(F)cc2)C2CCCCC2)CCN(C)C1 (centres unmarked) [Compound 171, 1-cyclohexyl-2-(2,8-dimethyl-3,4-dihydro-1H-pyrido[4,3-b]indol-5(2H)-yl)-1-(4-fluorophenyl)ethanol]		83	51	98	13
Cc1ccc2c(c1)c1c(n2CC(O)c2ccc(F)cc2)CCN(C)C1 (centres unmarked) [Compound 172, 2-(2,8-dimethyl-3,4-dihydro-1H-pyrido[4,3-b]indol-5(2H)-yl)-1-(4-fluorophenyl)ethanol]		98		97	95
COc1ccc(C(C)(O)Cn2c3c(c4cc(C)ccc42)CN(C)CC3)cc1F (centres unmarked) [Compound 173, 1-(2,8-dimethyl-3,4-dihydro-1H-pyrido[4,3-b]indol-5(2H)-yl)-2-(3-fluoro-4-methoxyphenyl)propan-2-ol]		94		98	91
